According to patent US6638916B1, “Use of sulfated oligosaccharides as inhibitors of cardiovascular disease” (The Australian National University, priority 1997, dated 2003):
Marks after values point to notes of the source that are not given here.

Legend:
[1] = test system: vascular intimal hyperplasia; assay: Balloon dilation model of vascular intimal hyperplasia (carotid artery); assay type: in vivo, rat
Description: In the second procedure, a traditional balloon dilation model, based essentially on the method described by Clowes et al.^8 was used. Thirteen male Wistar rats (16-20 weeks of age) were anaesthetised (avertin) and the left common carotid artery exteriorised via a ventral midline incision. A padded vascular clamp was applied to the most caudal end of the exteriorised artery. Following arteriotomy a 2 F Fogarty balloon catheter was inserted into the carotid artery, the vascular clamp removed and the catheter advanced 1-1.5 cm in a caudal direction. The balloon was inflated using a 0.12 cc of air and the catheter was withdrawn to the point of arterial insertion. The balloon was then deflated and this procedure was repeated twice more. On the third withdrawal the balloon was deflated, the catheter removed from the artery and simultaneously a padded vascular clamp applied immediately caudal to the arteriotomy but leaving room for the subsequent application of a ligature (5/0 silk). […]
In the second procedure employing the balloon dilation model, the degree of vascular intimal hyperplasia was calculated as a percentage of the total area of the vessel cross-section. Specifically, the percentage of hyperplasia was determined to be the area of the tunica intima divided by the cross-sectional area of the artery.

[2] = test system: saponin-induced vascular hyperplasia; assay: Saponin-induced vascular hyperplasia model (carotid artery endothelial denudation); assay type: in vivo, rat; conditions: for effect on saponin-induced smooth muscle cell hyperplasia (histology, in words): rat carotid artery 14 days after saponin denudation, 35 mg/kg/day days 1 to 14 by miniosmotic pump, 35 mg/kg/day
Description: In order to induce vascular hyperplasia two procedures were used. In the first procedure, male Fisher 344 rats (18→30 weeks of age) were anaesthetised and approximately a 1 cm length of one of the carotid arteries exteriorised by dissection. The 1 cm arterial segment was clamped at both ends with padded artery clamps. A small volume of saponin solution (0.5 mg/ml in PBS) was injected, via a 30 gauge needle, into the arterial segment, left for 2 min and then withdrawn by suction. The 1 cm arterial section was ligated (5/0 silk) on each side of the needle hole and the arterial clamps removed, the artery reinteriorised and the wound sutured. On the following day animals were divided into control and treatment groups. The treatment group received the sulfated oligosaccharide, sulfated mannopentaose phosphate (PI-88) at a dose of 35 mg/kg/day for the next 14 days delivered via subcutaneously implanted miniosmotic pumps (Alzet 2ML2). Control animals were given the miniosmotic pumps containing saline. After 2 weeks the animals were anaesthetised (pentobarbitone), perfused with 10% buffered formalin for 20 minutes, euthanised (Pentobarbitone) and the denuded arterial segments were removed and processed for histological examination. The degree of intimal hyperplasia was determined using digital image analysis.
The saponin-induced vascular hyperplasia model used in this study is a new procedure which has several important features which should be highlighted. First, brief exposure to the detergent saponin is used to denude the arterial wall of endothelial cells. Such a procedure is similar to the endothelial denudation resulting from balloon angioplasty. Second, massive vascular smooth muscle hyperplasia is observed in the saponin-treated carotid artery 14 days after saponin exposure (FIG. 1) when compared with the carotid artery from an untreated control animal (FIG. 2). In fact, almost complete occlusion of the blood vessel is observed in the saponin-treated vessel (FIG. 1). Third, based on control experiments, the saponin-induced vascular hyperplasia model represents an excellent system for screening of drugs which inhibit vascular hyperplasia, a process which occurs in atherosclerotic plaques and in angioplasty-associated restenosis.

In the case of “sulfated mannopentaose phosphate [PI-88]”, the “effect on vascular intimal hyperplasia (in words)” value ([1]; balloon dilation model, 35 mg/kg/day via miniosmotic pumps) is reported as “statistically significant (P=0.0008) reduction in vascular intimal hyperplasia”, the Percentage of neointima ([1]; male Wistar rats, balloon catheter dilation of left common carotid artery, 35 mg/kg/day for two weeks via subcutaneous miniosmotic pump, area of tunica intima divided by cross-sectional area of artery, saline control 57.66) is reported as 36.02^a % and the “Arterial Wall Thickness” value ([2]; male Fisher 344 rats, saponin denudation of carotid artery, 35 mg/kg/day for 14 days via subcutaneous miniosmotic pump, mean ± SEM, P = 0.08 vs control) is reported as 266.7 ± 27.7^b μm. For the same substance, the “Arterial Wall Thickness % Control” value ([2]; male Fisher 344 rats, saponin denudation, 35 mg/kg/day for 14 days via miniosmotic pump, saline control = 100, mean ± SEM, P = 0.08) was 66.4 ± 6.9^b %, the “effect on saponin-induced smooth muscle cell hyperplasia (histology, in words)” value [2] was “reduction in the saponin-induced vascular hyperplasia” and the “effect on saponin-induced smooth muscle cell hyperplasia (histology, in words)” value ([2]; listed as sulfated mannopentaose phosphate) was “substantial reduction in smooth muscle cell hyperplasia”. The “inhibition of vascular hyperplasia compared with untreated control animals” value ([2]; saponin model, 35 mg/kg/day via miniosmotic pumps, histological examination of carotid arteries, P=0.08) was 34%.
